The species entered for assay [1] is Homo sapiens. Briefly: Inhibition of clathrin at 100 uM.
The species entered for assay [2] is Ovis aries. Briefly: Inhibition of sheep dynamin 1 GTPase activity up to 300 uM after 30 mins by malachite-green method.
A short description of assay [3]: Inhibition of sheep dynamin 1 GTPase activity after 30 mins by malachite-green method. The arrangement: species or system Ovis aries.
In assay [4] the target is T1, Dynamin-1 (Homo sapiens) (UniProt Q05193).
T1 sequence (whole entry): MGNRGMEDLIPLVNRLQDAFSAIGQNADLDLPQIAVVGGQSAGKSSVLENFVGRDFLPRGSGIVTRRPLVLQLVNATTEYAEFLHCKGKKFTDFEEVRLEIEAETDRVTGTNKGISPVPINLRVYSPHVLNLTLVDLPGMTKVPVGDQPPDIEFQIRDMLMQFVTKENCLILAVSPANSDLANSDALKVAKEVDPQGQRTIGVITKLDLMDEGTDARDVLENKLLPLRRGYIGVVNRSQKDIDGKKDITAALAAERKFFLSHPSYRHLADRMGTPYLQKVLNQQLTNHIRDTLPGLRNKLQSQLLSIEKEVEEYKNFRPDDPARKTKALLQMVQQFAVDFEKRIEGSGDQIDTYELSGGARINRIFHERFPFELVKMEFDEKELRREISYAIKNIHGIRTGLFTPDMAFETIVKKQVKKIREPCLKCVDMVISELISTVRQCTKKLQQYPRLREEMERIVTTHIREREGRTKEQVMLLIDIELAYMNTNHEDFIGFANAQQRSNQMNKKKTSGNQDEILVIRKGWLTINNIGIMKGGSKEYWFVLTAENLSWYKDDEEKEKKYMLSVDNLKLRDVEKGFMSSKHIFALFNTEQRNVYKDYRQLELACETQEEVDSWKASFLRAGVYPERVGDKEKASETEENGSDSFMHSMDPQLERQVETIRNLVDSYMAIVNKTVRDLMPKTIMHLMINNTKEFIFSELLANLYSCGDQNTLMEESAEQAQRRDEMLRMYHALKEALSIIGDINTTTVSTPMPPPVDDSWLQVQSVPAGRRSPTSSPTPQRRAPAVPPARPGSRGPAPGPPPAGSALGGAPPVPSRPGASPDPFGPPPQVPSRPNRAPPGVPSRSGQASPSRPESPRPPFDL
The assay can be described thus: Inhibition of dynamin1-mediated endocytosis in human U2OS cells assessed as inhibition of Texas red-Tf uptake incubated up to 300 uM for 30 mins prior to Texas red-Tf addition measured after 8 mins by receptor-mediated endocytosis assay. The class given is cell-based.

The structures appear in SMILES notation. The source made the active and inactive calls. A value given as a limit tells only on which side of the number the result lay.

With `O=C1/C(=C/c2csc3ccc(Cl)cc23)SC(=S)N1Cc1ccccc1`, the inhibition result in assay [1] and in assay [2] was “inactive” each time.

The term IC50 denotes the concentration at which inhibition is half-maximal. A higher IC50 goes with a need for much substance. The compound `O=C(O)CCN1C(=O)/C(=C/c2ccc3nsnc3c2)SC1=S` showed an IC50 in assay [3] above 100 µM. In assay [1], the inhibition entry was “inactive”.

For the compound `CN(C)CCCOc1ccc(/C=C2\SC(=S)N(Cc3ccccc3)C2=O)cc1`, 22 µM corresponded to half-maximal inhibition in assay [3] (IC50). Also, the inhibition result in assay [4] and in assay [1] was “inactive” in each case.

In the case of `O=C(O)CN1C(=O)/C(=C/c2ccc3nonc3c2)SC1=S`, the inhibition entry in assay [1] and in assay [2] was “inactive” each time.

`O=C(O)CCN1C(=O)/C(=C/c2cc(Cl)cc(Cl)c2)SC1=S` gave an IC50 in assay [3] of 4.4 µM. Also, the inhibition result in assay [4] and in assay [1] was “inactive” in each case.

Take `O=C(O)CN1C(=O)/C(=C/c2ccc(-c3ccccc3)cc2)SC1=S`: in assay [3], the IC50 amounted to 73 µM. The inhibition entry in assay [1] was “inactive”.

Turning to `O=C1/C(=C/C2=Cc3ccccc3OC2)SC(=S)N1Cc1ccccc1`, the inhibition result in assay [1] and in assay [2] was “inactive” in each case.

In assay [3], `O=C1/C(=C/c2cc(Cl)cc(Cl)c2)SC(=S)N1Cc1ccccc1` came in with an IC50 of 50 µM. The inhibition result in assay [4] and in assay [1] was “inactive” in each case.

For `CCN1C(=O)/C(=C/c2ccc(-c3ccccc3)cc2)SC1=S`, the inhibition result in assay [1] and in assay [2] was “inactive” each time.

As for `C=CCN1C(=O)/C(=C/C2=Cc3ccccc3OC2)SC1=S`, the inhibition entry in assay [1] and in assay [2] was “inactive” each time.

`O=C1NC(=S)S/C1=C\C1=Cc2ccccc2OC1` gave an IC50 in assay [3] of 90 µM. In assay [1], the inhibition entry is “inactive”.

For `C=CCN1C(=O)/C(=C/c2ccc3nonc3c2)SC1=S`, the inhibition result in assay [1] and in assay [2] was “inactive” in each case.

For `O=C1/C(=C/c2cnc3ccccc3n2)SC(=S)N1Cc1ccccc1`, the inhibition result in assay [1] and in assay [2] was “inactive” throughout.

As to `O=C1/C(=C/c2ccc3nsnc3c2)SC(=S)N1Cc1ccccc1`, the inhibition result in assay [1] and in assay [2] was “inactive” each time.

Turning to `O=C(O)CCN1C(=O)/C(=C/c2coc3c(Cl)cc(Cl)cc3c2=O)SC1=S`, in assay [3], half-maximal inhibition (IC50) required 10 µM. In addition, the inhibition result in assay [1] is “inactive”.

`CN(C)CCCOc1ccc(/C=C2\SC(=S)N(CCC(=O)O)C2=O)cc1`: the inhibition entry in assay [1] is “inactive”.

Regarding `O=C(O)CN1C(=O)/C(=C/C2=Cc3ccccc3OC2)SC1=S`, the inhibition entry in assay [1] and in assay [2] was “inactive” each time.

As to `CN(C)CCCOc1ccc(/C=C2\SC(=S)N(CC(=O)O)C2=O)cc1`, the inhibition result in assay [1] and in assay [2] was “inactive” in each case.

With `CCN1C(=O)/C(=C/C2=Cc3ccccc3OC2)SC1=S`, the inhibition result in assay [1] and in assay [2] was “inactive” in each case.

For the compound `CCN1C(=O)/C(=C/c2cnc3ccccc3n2)SC1=S`, the inhibition result in assay [1] and in assay [2] was “inactive” each time.

On to `O=C(O)CCN1C(=O)/C(=C/c2cnc3ccccc3n2)SC1=S`, for which the inhibition result in assay [1] and in assay [2] was “inactive” each time.

As to `C=CCN1C(=O)/C(=C/c2coc3c(Cl)cc(Cl)cc3c2=O)SC1=S`, the IC50 in assay [3] is above 100 µM. For the same compound, the inhibition result in assay [1] was “inactive”.

In turn, `O=C1NC(=S)S/C1=C\c1ccc2nonc2c1` displayed an IC50 in assay [3] of 7.4 µM. The inhibition entry in assay [1] is “inactive”.

Turning to `O=C(O)CCN1C(=O)/C(=C/c2ccc(Br)cc2)SC1=S`, 9 µM corresponded to half-maximal inhibition in assay [3] (IC50). Also, the inhibition entry in assay [1] was “inactive”.

As for `O=C(O)CCN1C(=O)/C(=C/c2csc3ccc(Cl)cc23)SC1=S`, the IC50 in assay [3] was 48 µM. The inhibition entry in assay [4] and in assay [1] was “inactive” throughout.

`O=C1NC(=S)S/C1=C\c1ccc(-c2ccccc2)cc1`: the inhibition entry in assay [1] and in assay [2] was “inactive” each time.

Compound `O=C1/C(=C/c2coc3c(Cl)cc(Cl)cc3c2=O)SC(=S)N1Cc1ccccc1` registered an IC50 in assay [3] of 7.4 µM. In addition, the inhibition result in assay [1] was “inactive”.

In assay [3], `O=C1NC(=S)S/C1=C\c1cnc2ccccc2n1` registered an IC50 of 43 µM. In addition, the inhibition entry in assay [4] and in assay [1] was “inactive” in each case.

For `CN(C)CCCOc1ccc(/C=C2\SC(=S)NC2=O)cc1`, the inhibition result in assay [1] and in assay [2] was “inactive” throughout.

As for `O=C1NC(=S)S/C1=C\c1ccc(Br)cc1`, the inhibition result in assay [1] and in assay [2] was “inactive” throughout.

With `O=C1/C(=C/c2ccc3nonc3c2)SC(=S)N1Cc1ccccc1`, the half-inhibitory concentration (IC50) in assay [3] is 53 µM. For the same compound, the inhibition result in assay [1] is “inactive”.

As to `O=C1/C(=C/c2ccc(-c3ccccc3)cc2)SC(=S)N1Cc1ccccc1`, the inhibition result in assay [1] and in assay [2] was “inactive” throughout.

Consider `CCN1C(=O)/C(=C/c2coc3c(Cl)cc(Cl)cc3c2=O)SC1=S`, for which the IC50 in assay [3] amounted to 5.1 µM. In addition, the inhibition entry in assay [1] is “inactive”.

In assay [3], `O=C1NC(=S)S/C1=C\c1csc2ccc(Cl)cc12` returned an IC50 of 5.5 µM. Moreover, the inhibition result in assay [1] is “inactive”.

`O=C(O)CCN1C(=O)/C(=C/C2=Cc3ccccc3OC2)SC1=S` yielded an IC50 in assay [3] of 23.5 µM. Besides, the inhibition result in assay [1] is “inactive”.

On to `C=CCN1C(=O)/C(=C/c2ccc(-c3ccccc3)cc2)SC1=S`, for which the inhibition result in assay [1] and in assay [2] was “inactive” each time.

For the compound `O=C(O)CCN1C(=O)/C(=C/c2ccc3nonc3c2)SC1=S`, the inhibition result in assay [1] and in assay [2] was “inactive” each time.

In turn, `O=C(O)CN1C(=O)/C(=C/c2cnc3ccccc3n2)SC1=S` came in with an IC50 in assay [3] above 100 µM. Also, in assay [1], the inhibition entry was “inactive”.

Consider `C=CCN1C(=O)/C(=C/c2ccc(Br)cc2)SC1=S`, for which the inhibition result in assay [1] and in assay [2] was “inactive” throughout.

On to `CCN1C(=O)/C(=C/c2ccc(Br)cc2)SC1=S`, for which the inhibition result in assay [1] and in assay [2] was “inactive” throughout.

`O=C(O)CN1C(=O)/C(=C/c2coc3c(Cl)cc(Cl)cc3c2=O)SC1=S` showed an IC50 in assay [3] of 3.4 µM. For the same compound, in assay [1], the inhibition result is “inactive”.

In the case of `CCN1C(=O)/C(=C/c2ccc3nsnc3c2)SC1=S`, the inhibition result in assay [1] and in assay [2] was “inactive” throughout.

Turning to `C=CCN1C(=O)/C(=C/c2ccc3nsnc3c2)SC1=S`, the inhibition entry in assay [1] and in assay [2] was “inactive” throughout.

For the compound `C=CCN1C(=O)/C(=C/c2cnc3ccccc3n2)SC1=S`, the inhibition result in assay [1] and in assay [2] was “inactive” each time.

For `CCN1C(=O)/C(=C/c2ccc(OCCCN(C)C)cc2)SC1=S`, in assay [3], the IC50 was 6.4 µM. Moreover, in assay [1], the inhibition entry was “inactive”.

On to `CCN1C(=O)/C(=C/c2ccc3nonc3c2)SC1=S`, for which the inhibition result in assay [1] and in assay [2] was “inactive” throughout.

The compound `O=C1NC(=S)S/C1=C\c1coc2c(Cl)cc(Cl)cc2c1=O` returned an IC50 in assay [3] of 24 µM. For the same compound, in assay [1], the inhibition result was “inactive”.

Regarding `CCN1C(=O)/C(=C/c2csc3ccc(Cl)cc23)SC1=S`, the inhibition result in assay [1] and in assay [2] was “inactive” in each case.

`O=C(O)CN1C(=O)/C(=C/c2ccc(Br)cc2)SC1=S` had a concentration for half-maximal inhibition (IC50) in assay [3] above 100 µM. Further, in assay [1], the inhibition result was “inactive”.

For the compound `O=C1/C(=C/c2ccc(Br)cc2)SC(=S)N1Cc1ccccc1`, the IC50 in assay [3] was 134 µM. In addition, the inhibition entry in assay [1] is “inactive”.

Regarding `C=CCN1C(=O)/C(=C/c2ccc(OCCCN(C)C)cc2)SC1=S`, in assay [3], the IC50 turned out to be 3.6 µM. The inhibition entry in assay [1] was “inactive”.

Take `O=C(O)CN1C(=O)/C(=C/c2ccc3nsnc3c2)SC1=S`: the inhibition result in assay [1] and in assay [2] was “inactive” in each case.

Turning to `O=C1NC(=S)S/C1=C\c1cc(Cl)cc(Cl)c1`, in assay [3], it took 7.5 µM to reach half-maximal inhibition (IC50). The inhibition entry in assay [1] is “inactive”.

As to `O=C(O)CN1C(=O)/C(=C/c2csc3ccc(Cl)cc23)SC1=S`, in assay [3], it took 12.3 µM to reach half-maximal inhibition (IC50). Besides, in assay [1], the inhibition result was “inactive”.

Compound `O=C(O)CCN1C(=O)/C(=C/c2ccc(-c3ccccc3)cc2)SC1=S` returned an IC50 in assay [3] of 42 µM. Also, in assay [1], the inhibition entry is “inactive”.

As to `C=CCN1C(=O)/C(=C/c2csc3ccc(Cl)cc23)SC1=S`, the inhibition result in assay [1] and in assay [2] was “inactive” each time.

As for `O=C1NC(=S)S/C1=C\c1ccc2nsnc2c1`, the inhibition result in assay [1] and in assay [2] was “inactive” each time.

For the origin of these results see ChEMBL document CHEMBL2062444, “The Rhodadyns, a New Class of Small Molecule Inhibitors of Dynamin GTPase Activity” (ACS Med Chem Lett, 2012).
